In the test the target is T1, Prostaglandin E synthase (Homo sapiens, UniProt O14684).
T1 sequence (O14684 whole entry): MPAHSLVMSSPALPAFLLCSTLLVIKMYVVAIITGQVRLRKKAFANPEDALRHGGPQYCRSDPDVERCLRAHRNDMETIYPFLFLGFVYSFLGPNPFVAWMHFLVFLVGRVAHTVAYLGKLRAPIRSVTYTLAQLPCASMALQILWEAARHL
Kind of test: Inhibition Assay: mPGES-1 microsome fractions were prepared from CHO-K1 cells transiently transfected with plasmid encoding the human mPGES-1cDNA. Microsomes were diluted with potassium phosphate buffer containing reduced glutathione (pH7.4), and DMSO containing test compound or DMSO alone was added (such that DMSO final concentration would be 1% in each) and incubated at 4° C. for 20 minutes. Then, the enzymatic reactions were initiated by the addition of PGH2 substrate (final concentration 1 μM) and incubated at 4° C. for 60 seconds. The reaction was terminated by the addition of a citrate solution (final citrate concentration 50 mM) containing ferric chloride (final concentration 1 mg/mL). PGE2 production in the enzyme reaction aliquot was measured using HTRF kit (Cisbio International, catalogue #62P2APEC). In kind it is cell-based. On the technique in general: TR-FRET usually uses a lanthanide donor and a delayed reading to cut background.

By IC50 is commonly meant the point on the concentration scale where inhibition reaches its midpoint. Lower therefore signals inhibition by little substance.

`O=C(Nc1cc(C(=O)NCc2ccccc2C(F)(F)F)c2nc[nH]c2c1)c1ccccc1C(F)(F)F`: the half-inhibitory concentration (IC50) came to 12.7 nM.

Values taken from ChEMBL document CHEMBL3886430, “Heterocyclic derivative and pharmaceutical drug” (2015).
